Consider 3 compounds from patent US20220000798A1, “TRANS-RESVERATROL TOPICAL MEDICATION FOR THE TREATMENT OF PAIN AND METHOD OF MANUFACTURE THEREOF” (Ted's Brain Science, Inc., priority 2017, published 2022).

One series relates to AMPK. As to the kind of experiment: AMPK activation by resveratrol isomers. The class given is biochemical. The note with it: isomer of resveratrol. The source says:
It is thus realized herein that including cis-resveratrol in a topical medication would be particularly disadvantageous, because it would contribute to the grainy or greasy feeling of the medication without contributing to its AMPK-activating efficacy.

In the next series the test system is pain. The note with it: animal model (rodents); administration by injection; cited from earlier work.
Series [1] is described as follows: storage stability of trans-resveratrol powder. The class given is physicochemical. The conditions noted are these: well-sealed containers kept away from light. The procedure: In one embodiment, trans-resveratrol is prepared in the form of off-white to cream-colored powder with >99% purity as determined by high-performance liquid chromatography (HPLC) methodology. The resulting powder has a melting point of 260-264° C.

`Oc1ccc(/C=C\c2cc(O)cc(O)c2)cc1` [Cis-resveratrol]: the AMPK activation entry with AMPK is on record as “appears not to activate AMPK to any meaningful degree or extent”.
As to `Oc1ccc(C=Cc2cc(O)cc(O)c2)cc1` [resveratrol], in the series with pain, the “efficacy in mitigation of pain” value was “has shown efficacy in mitigation of pain”.
Regarding `Oc1ccc(/C=C/c2cc(O)cc(O)c2)cc1` [trans-resveratrol, 3,4′,5-trihydroxystilbene], the AMPK activation result in the series with AMPK is on record as “activates AMPK”. For the same compound, the stability over time result in series [1] is “over two years”.
